Measured values: ChEMBL document CHEMBL1165884, “Microwave-assisted synthesis and in-vitro anti-tumor activity of 1,3,4-triaryl-5-N-arylpyrazole-carboxamides” (Eur J Med Chem, 2010)
Converted amounts (≈) assume the structure as drawn.

Assays:
HEp-2 = test: Cytotoxicity against human Hep2 cells after 48 hrs; details: HEp-2, 48 h
Caco-2 = test: Cytotoxicity against human Caco-2 cells after 48 hrs; details: Caco-2, 48 h

Row | SMILES | IC50 (HEp-2) [µg/mL] | IC50 (Caco-2) [µg/mL]
1 | Cc1ccc(NC(=O)c2c(-c3ccccc3)c(-c3ccccc3)nn2-c2ccccc2)cc1 | 1.21 (≈ 2.82 µM) | 2.21 (≈ 5.15 µM)
2 | Cc1ccc(NC(=O)c2c(-c3ccc(Cl)cc3)c(-c3ccccc3)nn2-c2ccccc2)cc1 | 0.81 (≈ 1.75 µM) | 1.54 (≈ 3.32 µM)
3 | O=C(c1c(-c2ccc(Cl)cc2)c(-c2ccccc2)nn1-c1ccccc1)n1c(=S)[nH]c2ccccc21 | 1.54 (≈ 3.04 µM) | 3.29 (≈ 6.49 µM)
4 | O=C(Nc1ccccc1)c1c(-c2ccccc2)c(-c2ccccc2)nn1-c1ccccc1 | 1.5 (≈ 3.61 µM) | 1.68 (≈ 4.04 µM)
5 | O=C(c1c(-c2ccccc2)c(-c2ccccc2)nn1-c1ccccc1)n1c(=S)[nH]c2ccccc21 | 7.18 (≈ 15.2 µM) | 1.48 (≈ 3.13 µM)
6 | O=C(Nc1ccccc1)c1c(-c2ccc(Cl)cc2)c(-c2ccccc2)nn1-c1ccccc1 | 0.74 (≈ 1.64 µM) | 1.74 (≈ 3.87 µM)
7 | Cc1ccc(NC(=O)c2c(-c3ccccc3)c(-c3ccc(Cl)cc3)nn2-c2ccccc2)cc1 | 1.21 (≈ 2.61 µM) | 0.67 (≈ 1.44 µM)
8 | COc1cccc2c1C(=O)c1c(O)c3c(c(O)c1C2=O)C[C@@](O)(C(=O)CO)C[C@@H]3O[C@H]1C[C@H](N)[C@H](O)[C@H](C)O1 [DOXORUBICIN] | 0.4 (≈ 0.736 µM) | 1 (≈ 1.84 µM)
